Values of other authors, collected in patent US20160375234A1, “[…] METHODS AND COMPOSITIONS FOR DIAGNOSING AND TREATING BREAST CONDITIONS” (ATOSSA GENETIC INC., priority 2014, published 2016).

Test system: early-stage, HER2-overexpressing or -amplified breast cancer
Conditions: patients with early-stage, presurgical

CS(=O)(=O)CCNCc1ccc(-c2ccc3ncnc(Nc4ccc(OCc5cccc(F)c5)c(Cl)c4)c3c2)o1 [lapatinib]
growth of breast premalignancy (including ADH and DCIS) and invasive cancer: suppressed growth
